Read-outs that look alike come from different tables or passages of the source. Ends that are not written are not given here.
Assays:
[1] = tested on: Gram-negative Escherichia coli TOP10 strain; type: cell-based; details: for Antibacterial activity (MIC in µM) E. coli TOP10: broth microdilution assay; for MIC against E. coli: 24 h at 37 °C, dilution series 50 to 0.1 µM
Protocol: (§1) Chemicals. […] (Prague, Czech Republic), and Caslo ApS (Kongens Lyngby, Denmark). […] The bacterial stock was stored at -80°C.
(§2) Broth microdilution assay. Antimicrobial activity of the peptides was investigated against Gram-negative Escherichia coli TOP10 strain and Gram-positive Staphylococcus carnosus CCM 4838T using broth microdilution assay, based on which the inventors determined the bacterial minimum inhibition concentration (MIC). After cross streaking with bacteria, the petri dishes (with MHA) were incubated for 24 h at 37 °C. Overnight grown cultures were then sub-cultured for 4-6 h at 37 °C in test tubes containing MHB. The sub-cultured solutions were subsequently diluted to a standard concentration of 10^6 colony forming units (CFU) per mL. Cell counts were determined by measuring the optical density at 600 nm. In a flat-bottomed 96 well plate, the inventors prepared a dilution series for the peptides and for the reference antibiotic ampicillin from 50 to 0.1 µM concentration, which was then inoculated with bacteria and incubated for 24 h at 37 °C. Growth control wells were free from peptides or ampicillin to show the viability of the bacteria, and sterility control wells were free from bacterial inoculation to verify the sterility of the medium. The bacterial growth was visually evaluated based on the turbidity. MIC was determined as the lowest concentrated well where no visible bacterial growth was observed. To test the bacteriostatic or bacteriocidal activity of the peptides, 50 µl solution from the highest concentrated well (i.e., 50 µM) was transferred to a test tube containing 4 mL sterile MHB and incubated for 24 h at 37 °C under constant stirring. Streaking of the same solution was done on MHA containing petri dishes and incubated for 24 h at 37 °C to confirm the morphology of the colonies grown. Experiments were performed in triplicates.

[2] = tested on: Gram-positive Staphylococcus carnosus CCM 4838T; type: cell-based; details: for Antibacterial activity (MIC in µM) S. carnosus: CCM 4838
Protocol: as §1, §2

Calcein leakage assay = type: biochemical; details: for Extent of leakage (in percentage) at increasing peptide-to-lipid ratio (mol/mol) 1:100 / Extent of leakage (in percentage) at increasing peptide-to-lipid ratio (mol/mol) 1:10 / Extent of leakage (in percentage) at increasing peptide-to-lipid ratio (mol/mol) 1:20 / Extent of leakage (in percentage) at increasing peptide-to-lipid ratio (mol/mol) 1:50: calcein leakage, POPC:POPG (1:1 mol/mol) LUVs; for Extent of leakage (in percentage) at increasing peptide-to-lipid ratio (mol/mol) 1:100: peptide-to-lipid ratio 1:100 (mol/mol); for Extent of leakage (in percentage) at increasing peptide-to-lipid ratio (mol/mol) 1:10: peptide-to-lipid ratio 1:10 (mol/mol); for Extent of leakage (in percentage) at increasing peptide-to-lipid ratio (mol/mol) 1:20: peptide-to-lipid ratio 1:20 (mol/mol); for Extent of leakage (in percentage) at increasing peptide-to-lipid ratio (mol/mol) 1:50: peptide-to-lipid ratio 1:50 (mol/mol)
Protocol: as §1
Calcein leakage assay. Pore-forming activity of the peptides was tested by their ability to leak the self-quenching fluorescent dye calcein entrapped within POPC:POPG (1:1 mol/mol) large unilamellar vesicles (LUVs). After mixing DiD to the lipid mixture (in the ratio 1:500 mol/mol), a thin lipid film was created by evaporating of the chloroform, traces of which were removed by desiccating overnight. The lipid film was then dissolved in calcein buffer, followed by vigorous vortexing. The lipid suspension was subsequently subjected to 10 freeze-thaw cycles. To obtain uniform LUVs, the sample was passed 50 times back and forth through an extruder stacked with 100 nm pore size polycarbonate membrane filter. Afterwards, the untrapped calcein was removed on a HiTrap Desalting Column (with Sephadex G-25 Superfine resin) by washing with PBS buffer. The concentration of the lipid suspension was then adjusted to 0.02 mM. The concentration of the peptide solution was 0.1 mM. The inventors monitored the peptide-induced release of calcein from LUVs by the increase in fluorescence intensity after adding increasing amounts of peptides to the LUVs under constant stirring at 25 °C. The investigated range of peptide/lipid molecular ratio was from 1:100 to 1:10. The excitation and emission wavelengths were set to 495 nm and 520 nm, respectively. Maximum fluorescence intensity was obtained by disrupting all the vesicles in the end by adding 10% Triton X-100. Experiments were performed in triplicates with independently prepared lipid vesicles.

[3] = tested on: human red blood cells (HRBCs); type: cell-based
Protocol: as §1
Hemolysis assay. Hemolytic toxicity of the peptides was evaluated from their ability to lyse the fresh human red blood cells (HRBCs) collected from the University Hospital (Brno, Czech Republic). To obtain the erythrocyte pellets, the blood samples were centrifuged twice at 700×g and subsequently, once at 1000×g, each for 8 min. at 4 °C, which was followed by thorough washing with PBS. Resuspension of the pellets was done in PBS to obtain 0.5% (vol/vol) RBC suspension. In a well plate with 96 V-shaped bottom wells, the peptides were added in a dilution series from 0.1 to 50 µM concentration. Subsequently, HRBC suspension was added in each well. Negative control wells contained only PBS and HRBC suspension without any peptide (i.e., 0% lysis), and positive control wells included 5 µM melittin in the HRBC suspension. After incubation for 1 h at 37 °C, the well plates were centrifuged at 1000×g for 10 min. at 4 °C. Subsequently, the supernatant was collected in a flat-bottomed well plate and the optical density of the released hemoglobin was measured for each well at 415 nm wavelength. The calculated absorbances from the wells were then normalized against the averaged absorbances of the positive and the negative control wells. EC50 value was calculated from the normalized absorbances indicating 50% hemolysis of HRBCs. Experiments were performed in triplicates with three independent blood samples.

[4] = hemolysis assay, HRBCs, read-out: Toxicity (EC50 in µM) HRBCs

Row | Substance | Antibacterial activity (MIC in µM) S. carnosus [2] | Extent of leakage (in percentage) at increasing peptide-to-lipid ratio (mol/mol) 1:100 (Calcein leakage assay) | Extent of leakage (in percentage) at increasing peptide-to-lipid ratio (mol/mol) 1:10 (Calcein leakage assay) | Extent of leakage (in percentage) at increasing peptide-to-lipid ratio (mol/mol) 1:20 (Calcein leakage assay) | Extent of leakage (in percentage) at increasing peptide-to-lipid ratio (mol/mol) 1:50 (Calcein leakage assay) | Antibacterial activity (MIC in µM) E. coli TOP10 [1] | further results
1 | H-HHHHLKKILKKLFQFINQLDNQLQDIHHHH-OH [KDFA2i+2-Hter] | > 50 µM | 102.5 ± 1.2 percentage | – | – | – | – | antimicrobial activity against E. coli (in words) [1]: did not show antibacterial activity; antimicrobial activity against S. carnosus (in words) [2]: did not show antibacterial activity; extent of calcein leakage at peptide-to-lipid (P:L) ratio 1:100 (Calcein leakage assay; POPC:POPG (1:1) LUVs): 100%
2 | H-KKKKVKKILKKLIQLIDQLDKDLQDIKKKK-NH2 [KD16+9-NH2] | – | 58.8 ± 4.8 percentage | 99.1 ± 2.5 percentage | 93.1 ± 0.7 percentage | 83.0 ± 1.5 percentage | – | calcein / vesicle leakage, pore-forming ability (in words) (Calcein leakage assay; POPC:POPG (1:1) LUVs): resulted in vesicle leakage; EC50 [3]: > 50 µM
3 | KKKKKLKKILKKLFQFINQLDNQLQDIKKKKK [KDFA2i+12] | 0.4 µM | – | – | – | – | 0.4 µM | EC50 [3, 4]: > 50 µM
4 | KKKKLDDILDDLFQFIKQLKNKLQKIKKKK-NH2 [DKFC16+9-NH2] | 1.6 µM | 50.1 ± 4.1 percentage | – | 103.3 ± 0.9 percentage | 89.5 ± 3.3 percentage | > 50 µM | antimicrobial activity against E. coli (in words) [1]: did not show activity against E. coli; antimicrobial activity against S. carnosus (in words) [2]: found active against S. carnosus; calcein / vesicle leakage, pore-forming ability (in words) (Calcein leakage assay; POPC:POPG (1:1) LUVs): resulted in vesicle leakage; EC50 [3]: > 50 µM
5 | KKKKLKKILKKLFQFINQLDNQLQDFKQNK [KDFA2i+8(I26F)] | 0.8 µM | – | – | – | – | 0.4 µM | EC50 [3, 4]: > 50 µM
6 | KKKKLKKILKKLFQFINQLDNQLQDIKQNK [KDFA2i+8] | 0.4 µM | – | – | – | – | 0.2 µM | EC50 [3, 4]: > 50 µM
7 | KKKKLKKILKKLFQFINQLENQLQEIKQNK-NH2 [KEFA2i+9-NH2] | 0.8 µM | – | – | – | – | 0.8 µM | EC50 [3, 4]: > 50 µM
8 | KKKKLKKILKKLWQWINQLDNQLQDIKQNK-NH2 [KDWA2i+9-NH2] | 0.8 µM | – | – | – | – | 0.4 µM | EC50 [3, 4]: > 50 µM
9 | NQKKLKKILNQLFQFINQLDNQLQDIKKQN [KDFA2] | – | 82.8 ± 1.5 percentage | – | – | 100.2 ± 0.2 percentage | 50 µM | MIC against E. coli [1]: 50 µM; EC50 [3]: > 50 µM
10 | NQKKLRRILRRLFQFIDQLDNDLQDIKKQN [RDFC16Kter] | – | 64.5 ± 6.1 percentage | – | 102.2 ± 0.5 percentage | 85.3 ± 4.3 percentage | 50 µM | MIC against E. coli [1]: 50 µM; EC50 [3]: > 50 µM
11 | NQRRLQNILRRLFQFIDQLINDLQNIRRQN [RDFA5] | – | Aggregated peptides and no leakage | Aggregated peptides and no leakage | Aggregated peptides and no leakage | Aggregated peptides and no leakage | – | –
12 | NQRRLQNILRRLFQFINQLIDDLQNIRRQN [RDFA7] | – | Aggregated peptides and no leakage | Aggregated peptides and no leakage | Aggregated peptides and no leakage | Aggregated peptides and no leakage | – | –
13 | NQRRLRRILNQLFQFINQLDNQLQDIRQNR [RDFA2i] | – | Aggregated peptides and no leakage | Aggregated peptides and no leakage | Aggregated peptides and no leakage | Aggregated peptides and no leakage | – | –
14 | NQRRLRRILNQLFQFINQLDNQLQDIRRQN [RDFA2] | – | 80.2 ± 8.2 percentage | – | 102.9 ± 0.9 percentage | 97.4 ± 4.5 percentage | > 50 µM | EC50 [3]: > 50 µM
15 | NQRRLRRILNQLWQWINQLDNQLQDIRRQN [RDWA2] | – | Aggregated peptides and no leakage | Aggregated peptides and no leakage | Aggregated peptides and no leakage | Aggregated peptides and no leakage | – | –
16 | NQRRLRRILRRLFQFIDQLDNDLQDIRRQN [RDFC16] | – | Aggregated peptides and no leakage | Aggregated peptides and no leakage | Aggregated peptides and no leakage | Aggregated peptides and no leakage | – | –
17 | NQRRLRRILRRLFQFINQLIDDLDDIRRQN [RDFC21] | – | Aggregated peptides and no leakage | Aggregated peptides and no leakage | Aggregated peptides and no leakage | Aggregated peptides and no leakage | – | –
18 | NQRRLRRILRRLWQWINQLIDDLDDIRRQN [RDWC21] | – | Aggregated peptides and no leakage | Aggregated peptides and no leakage | Aggregated peptides and no leakage | Aggregated peptides and no leakage | – | –

— EP4129319A1, “PORE-FORMING ANTIMICROBIAL PEPTIDES” (priority 2021, dated 2023)
